Values joined by “and” are separate entries in the source; they are usually repeats but may differ in a detail not shown here. Identical values can stand only once. One block for each compound: values may come before it.
Assays:
activated AMPK = experiment: Western immunoblot for activated (phospho-Thr172) AMPK in muscle cells; type: cell-based, mouse; details: cells treated 30 minutes at 37° C
Protocol: (§1) The levels of Glut-4, activated AMPK and activated Akt were measured in mouse muscle cells C2C12 (from ATTC) and in primary culture of human skeletal muscle cells (Clonetics, Inc.) using Western immunoblotting. C2C12 cells were plated at 1.5×1-exp5 cells per mL/well (12-well plate) in standard cell culture medium (DMEM supplemented with 10% fetal bovine serum (FBS), 25 mM glucose, 20 mM Hepes, 4 mM glutamine and 2 mM sodium pyruvate. 48 hrs after the plating, medium was changed to differentiation medium (DMEM supplemented with 5 mM of glucose and 0.5% of FBS) for next 3-4 days to stimulate the formation of myotubes. Three hours before the treatment with selected agents, cells were washed with PBS and transferred to PBS supplemented with 5 mM of glucose.
(§2) Human skeletal muscle cells (HSKM) were cultured in SKBM-2 mediums provided by Clonetics. 48 hrs after cell plating, medium was changed to SKBM medium to stimulate differentiation of the cells to myotubes. When differentiated, the myotubes were transferred to PBS supplemented with 5 mM glucose for three hrs before the treatment.
(§3) Analysis of C2C12 cells for the level of activated AMPK, Akt and the level of GLUT-4 was performed in the same experimental system. The cells were treated for 30 minutes at 37° C. […] Subsequently, 20 μg per sample of sample protein was used for Western analysis using NuPage 10% Bis/Tris gels (Invitrogen). After exposure of membranes to primary and secondary antibodies AMPK, AKT or Glut-4 was detected using ECL-Plus (Amersham) following producer's instruction. Chemilumiscent signals were detected by using ChemiDoc system from Biorad. Intensity of detected signals were analyzed and measured using Quantity One software (Biorad). Alternatively, the level of phosphorylated AMPK was detected using ECL kit from Amersham and short exposure to Kodak films.
(§4) Experimental setup: Cell Culture was followed by treatment with selected contemplated compounds, which was followed by cell lysis and western blot analysis for AMPK, Akt, GLUT4, total AMPK, and total Akt. Signals were acquired accordingly.

[1] = Oral availability and serum level of DHZ by ELISA; type: in vivo, C57/B1 mice; details: 100 microgram/dose, mice; for concentration at 0 minutes / concentration at 15 minutes / concentration at 30 minutes / concentration at 60 minutes / concentration at 120 minutes: C57/B1, mouse, serum
Protocol: C57/B1 mice were treated with 100 microgram/dose of dihydrozeatin (DHZ) for 0, 15, 30, 60 and 120 minutes following oral or i.p. administration. Serum level of DHZ in pg/ml was measured using DHZ Elisa following procedures as enclosed in a commercially available test kit (e.g., dihydrozeatin competitive ELISA test system for plant growth hormone detection, Agdia, Elkhard, Ind.).

activated Akt = experiment: Western immunoblot for activated (phospho-Ser473) Akt in muscle cells; type: cell-based, mouse; details: cells treated 30 minutes at 37° C
Protocol: as §1, §2, §3, §4

[2] = system: rat epitrochlearis muscle; experiment: Glucose uptake in rat epitrochlearis muscle; type: cell-based; design: unit not given here; details: 60 minute incubation at 37 C, 10 minute transport at 30 C; for Glucose uptake, Raw: single values, listed as K
Protocol: Glucose uptake in rat epitrochlearis muscle was determined following a protocol substantially as described by Brozinick, J. T., and Birnbaum, M. J. (1998) J. Biol. Chem. 273(24), […]. Results are listed in Tables 5 and 6, wherein data of Table 5 were obtained for 60 minute incubations (at 37 C), 10 minute transport at (30 C) and data of Table 6 were obtained for 60 minute incubations (at 37 C), 10 minute transport at (30 C) of the compounds as indicated (K is kinetin, AG is N2-acetylguanine).

GLUT-4 = experiment: Western immunoblot for GLUT-4 protein level in C2C12 cells; type: cell-based, mouse
Protocol: as §1
Analysis of C2C12 cells for the level of activated AMPK, Akt and the level of GLUT-4 was performed in the same experimental system. The cells were treated for 30 minutes at 37° C. After the treatment, the cells were washed with ice-cold PBS and lysed with 80 μl of lysis buffer/well (M-PER buffer from Pierce supplemented with protease and phosphatase inhibitor mix (Calbiochem) for 10 minutes on ice. Next, the plates were transferred to −20° C. to improve the lysis of the cells. Next cells were sonicated for 5 minutes and lysate was transferred to Eppendorf tubes and centrifuged at 14,000 rpm for 10 minutes. Supernatants were collected in fresh Eppendorf tubes and kept on ice to measure the amount of total proteins. 3 μl of each lysate was used to measure the protein concentration using standard Bradford method (Biorad). Subsequently, 20 μg per sample of sample protein was used for Western analysis using NuPage 10% Bis/Tris gels (Invitrogen). After exposure of membranes to primary and secondary antibodies AMPK, AKT or Glut-4 was detected using ECL-Plus (Amersham) following producer's instruction. Chemilumiscent signals were detected by using ChemiDoc system from Biorad. Intensity of detected signals were analyzed and measured using Quantity One software (Biorad). Alternatively, the level of phosphorylated AMPK was detected using ECL kit from Amersham and short exposure to Kodak films.
Experimental setup: Cell Culture was followed by treatment with selected contemplated compounds, which was followed by cell lysis and western blot analysis for AMPK, Akt, GLUT4, total AMPK, and total Akt. Signals were acquired accordingly. Primary antibodies used in these studies are the following: Anti-phospho-AMPK (Thr172), mouse, rabbit IgG, from Cell Signaling, #2531; Anti-phospho-Akt (Ser473), mouse, rabbit IgG, Cell Signaling, #9271; Anti-Glut-4, mouse, rabbit IgG, Calbiochem, #400064; Anti-AMPK (total), mouse, rabbit IgG, Cell Signaling, #2532; Anti-Akt (total), mouse, rabbit IgG, Cell Signaling, #9272.
The effects of kinetin, N^2-Acetyl-Guanosine and N^2-Acetyl-Guanine on GLUT-4 protein level in C2C12 cells were investigated following the same experimental design as described for AMPK and AKT. Anti-Glut-4 antibody used in this study was from Calbiochem. […] Table 3 refers to multiple independent experiments where multiple identical concentrations for the same reagents are indicated.

muscle cells = experiment: Total glucose uptake in vitro with fluorescent glucose analog; type: cell-based; details: for AVERAGE (N = 3) fluorescence of fluorescent glucose in the cells / FOLD CHANGE IN TOTAL GLUCOSE UPTAKE (OVER CONTROL): 30 minutes at 37 C
Protocol: Total glucose uptake was measured using fluorescent glucose analog from Molecular Probes. Briefly, muscle cells were treated with kinetin, N^2-Acetyl-Guanosine and N^2-Acetyl-Guanine for 30 minutes at 37 C first and subsequently, these cells were exposed to 500 μM of fluorescent glucose analog for 5 minutes at room temperature. Next, cells were washed twice with cold Krebs-Hepes buffered solution and fixed in 70% ethanol in water. Fluorescence of fluorescent glucose in the cells was measured using fluorescent plate reader at 480/530 nm (excitation/emission). […] Table 4 refers to multiple independent experiments where multiple identical concentrations for the same reagents are indicated.

[3] = concentration 0.15 (unit not given)
[4] = concentration 0.3 (unit not given)
[5] = concentration 0.75 (unit not given)
[6] = concentration 1.5 (unit not given)
[7] = concentration 3.75 (unit not given)
[8] = concentration 7.5 (unit not given)

concentration at 0 minutes ([1]; ip): 0.3 ng/mL
concentration at 15 minutes ([1]; ip): 1.15 ng/mL
concentration at 30 minutes ([1]; ip): 0.991 ng/mL
concentration at 60 minutes ([1]; ip): 0.746 ng/mL
concentration at 120 minutes ([1]; ip): 0.471 ng/mL
concentration at 0 minutes ([1]; Oral): 0.3 ng/mL
concentration at 15 minutes ([1]; Oral): 0.952 ng/mL
concentration at 30 minutes ([1]; Oral): 1.02 ng/mL
concentration at 60 minutes ([1]; Oral): 0.961 ng/mL
concentration at 120 minutes ([1]; Oral): 0.853 ng/mL
oral bioavailability (in words) [1]: readily bioavailable from the oral route
time over which significant serum concentrations can be maintained [1]: at least 120 minutes
SMILES: CC(CO)CCNc1ncnc2nc[nH]c12 (stereo not drawn) [Dihydro-Zeatin, dihydrozeatin]
FOLD AMPK ACTIVATION (OVER CONTROL) (activated AMPK; 0.5 microM): 2.25 fold
FOLD AMPK ACTIVATION (OVER CONTROL) (activated AMPK; 5.0 microM): 0.59 fold
FOLD AMPK ACTIVATION (OVER CONTROL) (activated AMPK; 50.0 microM): 0.88 fold

SMILES: c1coc(CNc2ncnc3[nH]cnc23)c1 [Kinetin, kinetin]
FOLD AKT ACTIVATION (OVER CONTROL) (activated Akt; 0.3 microM): 5.08 fold
FOLD AKT ACTIVATION (OVER CONTROL) (activated Akt; 0.8 microM): 3.17 fold
FOLD AKT ACTIVATION (OVER CONTROL) (activated Akt; 0.9 microM): 3.81 fold
FOLD AKT ACTIVATION (OVER CONTROL) (activated Akt; 2.0 microM): 3.35 fold
FOLD AKT ACTIVATION (OVER CONTROL) (activated Akt; 2.7 microM): 3.21 fold
FOLD AKT ACTIVATION (OVER CONTROL) (activated Akt; 5.0 microM): 2.07 fold
FOLD AKT ACTIVATION (OVER CONTROL) (activated Akt; 8.1 microM): 0.24 fold
Glucose uptake, Mean ([2]; 0.5 uM): 0.99
Glucose uptake, Mean ([2]; 1 uM (Table 6)): 1.23
Glucose uptake, Raw ([2]; 1 uM (Table 6)): 1.54 and 0.95 and 1.33 and 1.10 and 1.23
Glucose uptake, Mean ([2]; 2 uM): 0.70
Glucose uptake, Raw ([2]; 2 uM): 0.57 and 0.90 and 0.64 and 0.81
FOLD AMPK ACTIVATION (OVER CONTROL) (activated AMPK; 0.1 microM): 5.30 fold
FOLD AMPK ACTIVATION (OVER CONTROL) (activated AMPK; 0.3 microM): 8.12 fold
FOLD AMPK ACTIVATION (OVER CONTROL) (activated AMPK; 0.8 microM): 3.60 fold and 2.40 fold
FOLD AMPK ACTIVATION (OVER CONTROL) (activated AMPK; 1.0 microM): 19.50 fold
FOLD AMPK ACTIVATION (OVER CONTROL) (activated AMPK; 2.0 microM): 2.70 fold
FOLD AMPK ACTIVATION (OVER CONTROL) (activated AMPK; 3.0 microM): 14.50 fold
FOLD AMPK ACTIVATION (OVER CONTROL) (activated AMPK; 10.0 microM): 12.80 fold
effect on GLUT-4 protein level (in words) (GLUT-4): potently increase GLUT-4 protein level
FOLD CHANGE IN GLUT-4 LEVEL (OVER CONTROL) (GLUT-4; 0.3 microM): 3.45 fold and 3.95 fold
FOLD CHANGE IN GLUT-4 LEVEL (OVER CONTROL) (GLUT-4; 0.8 microM): 3.46 fold and 2.36 fold
FOLD CHANGE IN GLUT-4 LEVEL (OVER CONTROL) (GLUT-4; 0.9 microM): 4.00 fold
FOLD CHANGE IN GLUT-4 LEVEL (OVER CONTROL) (GLUT-4; 2.0 microM): 1.88 fold
FOLD CHANGE IN GLUT-4 LEVEL (OVER CONTROL) (GLUT-4; 2.7 microM): 3.88 fold
FOLD CHANGE IN GLUT-4 LEVEL (OVER CONTROL) (GLUT-4; 8.1 microM): 1.11 fold
effect on glucose uptake in muscle cells in vitro (in words) (muscle cells): potently enhance glucose uptake in muscle cells in vitro
AVERAGE (N = 3) fluorescence of fluorescent glucose in the cells (muscle cells; [3]): 88.6 +/− 0.9
FOLD CHANGE IN TOTAL GLUCOSE UPTAKE (OVER CONTROL) (muscle cells; [3]): 1.88 fold
AVERAGE (N = 3) fluorescence of fluorescent glucose in the cells (muscle cells; [4]): 86.0 +/− 0.7
FOLD CHANGE IN TOTAL GLUCOSE UPTAKE (OVER CONTROL) (muscle cells; [4]): 2.97 fold
AVERAGE (N = 3) fluorescence of fluorescent glucose in the cells (muscle cells; [5]): 103.3 +/− 2.1
FOLD CHANGE IN TOTAL GLUCOSE UPTAKE (OVER CONTROL) (muscle cells; [5]): 2.19 fold
AVERAGE (N = 3) fluorescence of fluorescent glucose in the cells (muscle cells; [6]): 110.6 +/− 2.3
FOLD CHANGE IN TOTAL GLUCOSE UPTAKE (OVER CONTROL) (muscle cells; [6]): 3.82 fold
AVERAGE (N = 3) fluorescence of fluorescent glucose in the cells (muscle cells; [7]): 102.6 +/− 4.7
FOLD CHANGE IN TOTAL GLUCOSE UPTAKE (OVER CONTROL) (muscle cells; [7]): 2.18 fold
AVERAGE (N = 3) fluorescence of fluorescent glucose in the cells (muscle cells; [8]): 56.6 +/− 1.4
FOLD CHANGE IN TOTAL GLUCOSE UPTAKE (OVER CONTROL) (muscle cells; [8]): 1.95 fold

— patent US20090208620A1, “Alimentary Compositions and Methods For Metabolic Modulation” (VDF FUTURECEUTICALS, INC., priority 2003, published 2009)
